In patent US11969428B2, “Methods and pharmaceutical compositions for treating lymphoid malignancy” (priority 2011, dated 2024):

Columns and labels:
Test in all cases: Ambit KinomeScan screening
Type in all cases: binding
Details in all cases: CAL-130 10 μM
PAK4 = target: T1, PAK4 (Homo sapiens, UniProt O96013)
T1 construct: tag (kind not specified); purchased Ambit (KinomeScan screening service)
Procedure: (§1) CAL-130 (10 μM) was evaluated for its ability to prevent tagged kinases from interacting with immobilized “bait” ligand (Karaman et al., 2008). Results are reported as “% of control binding”, where lower numbers indicate stronger interactions with the tagged kinase. Values of >35% are considered “no hits”. PI3Kδ had the lowest percentage of control binding at 0.2% followed by PI3Kγ at 3.2% (See Table 1 below). These values indicate a high probability of a potent interaction. 353 kinases were assessed in the screen (Table 2).

RPS6KA4 = target: T2, RPS6KA4 (Homo sapiens, UniProt O75676)
T2 construct: tag, kind not specified; purchased Ambit (KinomeScan screening service)
Procedure: as §1

MET = target: T3, MET (Homo sapiens, UniProt P08581)
T3 construct: purchased Ambit (KinomeScan screening)
Procedure: as §1

STK35 = target: T4, STK35 (Homo sapiens, UniProt Q8TDR2)
T4 construct: tag (kind not specified); purchased Ambit (KinomeScan screening service)
Procedure: as §1

PKAC-β = target: T5, PKAC-β (Homo sapiens, UniProt P22694)
T5 construct: unspecified tag; purchased Ambit (KinomeScan screening panel)
Procedure: as §1

DLK = target: T6, DLK (Homo sapiens, UniProt Q12852)
T6 construct: unspecified tag ("tagged kinases"); purchased Ambit (KinomeScan screening service)
Procedure: as §1

MEK1 = target: T7, MEK1 (Homo sapiens, UniProt Q02750)
T7 construct: purchased Ambit (KinomeScan screening)
Procedure: as §1

LTK = target: T8, LTK (Homo sapiens, UniProt P29376)
T8 construct: unspecified tag ('tagged kinases'); purchased Ambit (KinomeScan screening service)
Procedure: as §1

CDK11 = target: T9, CDK11 (Homo sapiens, UniProt Q9BWU1)
T9 construct: purchased Ambit (KinomeScan screening)
Procedure: as §1

ABL1(Q252H) = target: T10, ABL1(Q252H) (Homo sapiens, UniProt P00519, Q252H)
T10 construct: unspecified tag ("tagged kinases"); purchased Ambit (KinomeScan screening)
Procedure: as §1

EPHB6 = target: T11, EPHB6 (Homo sapiens, UniProt O15197)
T11 construct: purchased Ambit (KinomeScan screening service)
Procedure: as §1

AURKC = target: T12, AURKC (Homo sapiens, UniProt Q9UQB9)
T12 construct: purchased Ambit (KinomeScan screening service)
Procedure: as §1

BRK = target: T13, BRK (Homo sapiens, UniProt Q13882)
T13 construct: unspecified tag ("tagged kinases"); purchased Ambit (KinomeScan screening)
Procedure: as §1

PFTK1 = target: T14, PFTK1 (Homo sapiens, UniProt O94921)
T14 construct: unspecified tag ('tagged kinases'); purchased Ambit (KinomeScan screening)
Procedure: as §1

DAPK2 = target: T15, DAPK2 (Homo sapiens, UniProt Q9UIK4)
T15 construct: purchased Ambit (KinomeScan screening service)
Procedure: as §1

EPHB4 = target: T16, EPHB4 (Homo sapiens, UniProt P54760)
T16 construct: purchased Ambit (KinomeScan screening service)
Procedure: as §1

MEK3 = target: T17, MEK3 (Homo sapiens, UniProt P46734)
T17 construct: purchased Ambit (KinomeScan screening)
Procedure: as §1

LIMK1 = target: T18, LIMK1 (Homo sapiens, UniProt P53667)
T18 construct: unspecified tag ('tagged kinases'); purchased Ambit (KinomeScan screening service)
Procedure: as §1

PRKG1 = target: T19, PRKG1 (Homo sapiens, UniProt Q13976)
T19 construct: tag (kind not specified); purchased Ambit (KinomeScan screening service)
Procedure: as §1

MLK1 = target: T20, MLK1 (Homo sapiens, UniProt P80192)
T20 construct: unspecified tag ('tagged kinases'); purchased Ambit (KinomeScan screening)
Procedure: as §1

HCK = target: T21, HCK (Homo sapiens, UniProt P08631)
T21 construct: unspecified tag ('tagged kinases'); purchased Ambit (KinomeScan screening service)
Procedure: as §1

PIK3CD = target: T22, PIK3CD (Homo sapiens, UniProt O00329)
T22 construct: unspecified tag; purchased Ambit (KinomeScan screening panel)
Procedure: as §1

RET(M918T) = target: T23, RET(M918T) (Homo sapiens, UniProt P07949, M918T)
T23 construct: tag (kind not specified); purchased Ambit (KinomeScan screening service)
Procedure: as §1

STK33 = target: T24, STK33 (Homo sapiens, UniProt Q9BYT3)
T24 construct: purchased Ambit (KinomeScan screening service)
Procedure: as §1

EGFR(L861Q) = target: T25, EGFR(L861Q) (Homo sapiens, UniProt P00533, L861Q)
T25 construct: unspecified tag; purchased Ambit (KinomeScan screening service)
Procedure: as §1

RAF1 = target: T26, RAF1 (Homo sapiens, UniProt P04049)
T26 construct: tag (kind not specified); purchased Ambit (KinomeScan screening service)
Procedure: as §1

EPHA5 = target: T27, EPHA5 (Homo sapiens, UniProt P54756)
T27 construct: purchased Ambit (KinomeScan screening service)
Procedure: as §1

DDR2 = target: T28, DDR2 (Homo sapiens, UniProt Q16832)
T28 construct: unspecified tag ("tagged kinases"); purchased Ambit (KinomeScan screening service)
Procedure: as §1

TGFBR1 = target: T29, TGFBR1 (Homo sapiens, UniProt P36897)
T29 construct: unspecified tag (tagged kinase); purchased Ambit (KinomeScan screening)
Procedure: as §1

MAP3K2 = target: T30, MAP3K2 (Homo sapiens, UniProt Q9Y2U5)
T30 construct: Ambit (KinomeScan screening)
Procedure: as §1

BIKE = target: T31, BIKE (Homo sapiens, UniProt Q9NSY1)
T31 construct: purchased Ambit (KinomeScan screening service)
Procedure: as §1

BTK = target: T32, BTK (Homo sapiens, UniProt Q06187)
T32 construct: unspecified tag ("tagged kinases"); purchased Ambit (KinomeScan screening)
Procedure: as §1

CAMK2D = target: T33, CAMK2D (Homo sapiens, UniProt Q13557)
T33 construct: purchased Ambit (KinomeScan screening)
Procedure: as §1

PAK6 = target: T34, PAK6 (Homo sapiens, UniProt Q9NQU5)
T34 construct: tag (kind not specified); purchased Ambit (KinomeScan screening service)
Procedure: as §1

EPHA8 = target: T35, EPHA8 (Homo sapiens, UniProt P29322)
T35 construct: purchased Ambit (KinomeScan screening service)
Procedure: as §1

MAP3K1 = target: T36, MAP3K1 (Homo sapiens, UniProt Q13233)
T36 construct: Ambit (KinomeScan screening)
Procedure: as §1

T22 sequence (O00329 whole entry): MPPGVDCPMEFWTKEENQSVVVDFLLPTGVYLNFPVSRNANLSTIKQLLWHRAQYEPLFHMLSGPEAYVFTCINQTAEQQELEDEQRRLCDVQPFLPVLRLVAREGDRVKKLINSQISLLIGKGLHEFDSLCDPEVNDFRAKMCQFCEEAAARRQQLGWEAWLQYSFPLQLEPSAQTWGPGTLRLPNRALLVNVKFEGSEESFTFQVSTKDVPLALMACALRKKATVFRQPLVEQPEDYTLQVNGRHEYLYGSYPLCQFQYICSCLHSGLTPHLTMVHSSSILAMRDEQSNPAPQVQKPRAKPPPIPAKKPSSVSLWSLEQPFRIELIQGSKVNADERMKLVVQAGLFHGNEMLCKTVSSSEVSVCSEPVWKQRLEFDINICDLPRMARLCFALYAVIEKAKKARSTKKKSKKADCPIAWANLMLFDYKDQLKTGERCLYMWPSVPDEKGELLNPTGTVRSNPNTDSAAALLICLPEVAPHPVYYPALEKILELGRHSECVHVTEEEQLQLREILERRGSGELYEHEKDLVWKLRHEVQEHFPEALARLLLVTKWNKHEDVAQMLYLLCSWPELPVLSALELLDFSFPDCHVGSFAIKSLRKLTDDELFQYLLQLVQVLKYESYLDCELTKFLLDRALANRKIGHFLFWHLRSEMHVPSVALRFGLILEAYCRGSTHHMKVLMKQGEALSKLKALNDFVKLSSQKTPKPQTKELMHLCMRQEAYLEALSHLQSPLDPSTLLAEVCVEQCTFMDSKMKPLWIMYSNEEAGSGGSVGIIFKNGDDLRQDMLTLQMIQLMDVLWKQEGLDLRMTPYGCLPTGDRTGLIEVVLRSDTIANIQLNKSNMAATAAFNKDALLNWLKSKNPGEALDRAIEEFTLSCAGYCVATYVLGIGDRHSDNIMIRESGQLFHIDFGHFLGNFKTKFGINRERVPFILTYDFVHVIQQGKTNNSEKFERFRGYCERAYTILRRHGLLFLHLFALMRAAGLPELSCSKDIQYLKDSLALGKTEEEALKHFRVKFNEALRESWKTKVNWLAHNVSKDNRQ
T27 sequence (P54756 25-1037): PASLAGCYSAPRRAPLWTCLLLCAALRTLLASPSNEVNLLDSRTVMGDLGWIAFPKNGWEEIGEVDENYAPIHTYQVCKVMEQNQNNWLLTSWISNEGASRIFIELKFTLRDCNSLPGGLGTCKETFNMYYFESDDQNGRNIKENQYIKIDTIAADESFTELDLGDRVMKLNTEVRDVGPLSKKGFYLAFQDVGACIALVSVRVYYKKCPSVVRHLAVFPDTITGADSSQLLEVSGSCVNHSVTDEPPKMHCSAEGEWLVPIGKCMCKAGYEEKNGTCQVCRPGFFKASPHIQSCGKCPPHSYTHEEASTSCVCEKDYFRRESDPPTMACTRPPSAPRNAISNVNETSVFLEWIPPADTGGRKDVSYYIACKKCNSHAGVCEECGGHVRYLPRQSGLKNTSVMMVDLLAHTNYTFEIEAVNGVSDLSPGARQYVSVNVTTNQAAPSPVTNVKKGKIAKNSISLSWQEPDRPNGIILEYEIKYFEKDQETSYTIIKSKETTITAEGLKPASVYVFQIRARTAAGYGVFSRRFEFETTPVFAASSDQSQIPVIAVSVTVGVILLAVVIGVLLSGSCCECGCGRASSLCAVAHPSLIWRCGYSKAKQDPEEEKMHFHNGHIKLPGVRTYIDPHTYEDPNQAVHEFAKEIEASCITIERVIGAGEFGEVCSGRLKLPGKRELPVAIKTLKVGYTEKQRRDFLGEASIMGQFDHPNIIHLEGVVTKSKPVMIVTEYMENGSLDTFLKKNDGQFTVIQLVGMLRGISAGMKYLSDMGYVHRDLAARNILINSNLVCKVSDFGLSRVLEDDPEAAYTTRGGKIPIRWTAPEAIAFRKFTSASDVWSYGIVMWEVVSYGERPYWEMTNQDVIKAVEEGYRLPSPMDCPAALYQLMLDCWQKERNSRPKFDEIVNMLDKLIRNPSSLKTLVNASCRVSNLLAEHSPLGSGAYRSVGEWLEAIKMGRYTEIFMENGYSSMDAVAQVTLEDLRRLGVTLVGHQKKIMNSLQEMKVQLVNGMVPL
T9 sequence (Q9BWU1 whole entry): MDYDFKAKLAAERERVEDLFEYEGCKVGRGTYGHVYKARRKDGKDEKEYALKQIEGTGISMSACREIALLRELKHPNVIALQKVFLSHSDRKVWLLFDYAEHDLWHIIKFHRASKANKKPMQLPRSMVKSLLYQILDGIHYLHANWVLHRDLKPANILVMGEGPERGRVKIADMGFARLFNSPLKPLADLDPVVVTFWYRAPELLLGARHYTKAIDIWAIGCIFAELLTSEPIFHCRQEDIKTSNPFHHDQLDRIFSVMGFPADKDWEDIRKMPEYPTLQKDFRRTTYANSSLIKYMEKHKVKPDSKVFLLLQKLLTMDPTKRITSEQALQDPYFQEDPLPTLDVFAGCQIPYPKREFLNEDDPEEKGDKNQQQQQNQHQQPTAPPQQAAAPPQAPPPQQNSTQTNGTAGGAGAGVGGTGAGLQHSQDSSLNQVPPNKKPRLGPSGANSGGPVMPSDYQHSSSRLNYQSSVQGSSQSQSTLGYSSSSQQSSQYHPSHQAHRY
T2 sequence (O75676 whole entry): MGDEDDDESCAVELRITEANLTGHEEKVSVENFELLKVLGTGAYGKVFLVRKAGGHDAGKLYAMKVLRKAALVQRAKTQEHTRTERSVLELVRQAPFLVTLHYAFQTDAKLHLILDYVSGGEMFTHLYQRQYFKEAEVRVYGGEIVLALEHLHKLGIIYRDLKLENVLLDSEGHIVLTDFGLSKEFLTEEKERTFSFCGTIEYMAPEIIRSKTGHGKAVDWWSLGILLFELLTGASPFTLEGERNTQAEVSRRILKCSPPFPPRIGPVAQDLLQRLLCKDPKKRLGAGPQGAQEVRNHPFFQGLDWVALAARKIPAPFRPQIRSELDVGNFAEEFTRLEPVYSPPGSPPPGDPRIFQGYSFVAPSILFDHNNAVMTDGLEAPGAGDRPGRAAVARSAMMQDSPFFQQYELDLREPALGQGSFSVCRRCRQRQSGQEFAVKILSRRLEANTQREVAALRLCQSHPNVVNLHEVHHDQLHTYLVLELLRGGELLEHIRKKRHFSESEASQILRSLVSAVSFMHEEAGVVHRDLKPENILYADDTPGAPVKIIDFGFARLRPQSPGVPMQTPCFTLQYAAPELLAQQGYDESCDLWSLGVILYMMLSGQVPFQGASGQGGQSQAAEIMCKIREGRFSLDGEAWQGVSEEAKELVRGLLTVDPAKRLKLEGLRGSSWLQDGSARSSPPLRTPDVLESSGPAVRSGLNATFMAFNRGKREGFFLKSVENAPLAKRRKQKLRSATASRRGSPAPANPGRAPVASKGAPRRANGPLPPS
T33 sequence (Q13557 whole entry): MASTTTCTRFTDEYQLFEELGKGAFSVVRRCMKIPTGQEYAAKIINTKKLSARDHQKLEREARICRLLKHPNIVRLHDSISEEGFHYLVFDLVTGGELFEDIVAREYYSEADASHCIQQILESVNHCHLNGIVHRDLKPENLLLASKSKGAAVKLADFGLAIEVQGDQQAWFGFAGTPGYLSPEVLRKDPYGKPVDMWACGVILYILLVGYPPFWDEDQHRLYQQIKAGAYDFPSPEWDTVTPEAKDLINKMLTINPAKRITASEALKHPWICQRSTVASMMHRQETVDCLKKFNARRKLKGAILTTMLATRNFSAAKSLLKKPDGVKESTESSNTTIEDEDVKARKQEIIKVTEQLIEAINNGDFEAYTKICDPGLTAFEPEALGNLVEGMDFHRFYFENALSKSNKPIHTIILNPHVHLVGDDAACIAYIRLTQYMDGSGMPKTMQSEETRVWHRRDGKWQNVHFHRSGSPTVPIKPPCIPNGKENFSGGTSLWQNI
T13 sequence (Q13882 whole entry): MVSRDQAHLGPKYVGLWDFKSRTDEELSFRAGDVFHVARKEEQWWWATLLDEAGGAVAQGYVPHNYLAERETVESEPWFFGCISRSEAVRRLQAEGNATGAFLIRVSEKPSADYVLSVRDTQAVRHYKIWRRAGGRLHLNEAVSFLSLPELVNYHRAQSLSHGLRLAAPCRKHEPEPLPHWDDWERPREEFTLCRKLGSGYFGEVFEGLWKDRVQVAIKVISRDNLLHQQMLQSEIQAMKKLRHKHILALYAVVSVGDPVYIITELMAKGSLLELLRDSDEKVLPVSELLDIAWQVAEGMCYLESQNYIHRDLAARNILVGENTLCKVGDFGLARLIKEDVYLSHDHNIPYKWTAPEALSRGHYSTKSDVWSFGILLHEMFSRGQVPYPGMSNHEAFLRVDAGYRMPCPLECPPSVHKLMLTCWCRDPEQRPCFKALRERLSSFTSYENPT
T18 sequence (P53667 whole entry): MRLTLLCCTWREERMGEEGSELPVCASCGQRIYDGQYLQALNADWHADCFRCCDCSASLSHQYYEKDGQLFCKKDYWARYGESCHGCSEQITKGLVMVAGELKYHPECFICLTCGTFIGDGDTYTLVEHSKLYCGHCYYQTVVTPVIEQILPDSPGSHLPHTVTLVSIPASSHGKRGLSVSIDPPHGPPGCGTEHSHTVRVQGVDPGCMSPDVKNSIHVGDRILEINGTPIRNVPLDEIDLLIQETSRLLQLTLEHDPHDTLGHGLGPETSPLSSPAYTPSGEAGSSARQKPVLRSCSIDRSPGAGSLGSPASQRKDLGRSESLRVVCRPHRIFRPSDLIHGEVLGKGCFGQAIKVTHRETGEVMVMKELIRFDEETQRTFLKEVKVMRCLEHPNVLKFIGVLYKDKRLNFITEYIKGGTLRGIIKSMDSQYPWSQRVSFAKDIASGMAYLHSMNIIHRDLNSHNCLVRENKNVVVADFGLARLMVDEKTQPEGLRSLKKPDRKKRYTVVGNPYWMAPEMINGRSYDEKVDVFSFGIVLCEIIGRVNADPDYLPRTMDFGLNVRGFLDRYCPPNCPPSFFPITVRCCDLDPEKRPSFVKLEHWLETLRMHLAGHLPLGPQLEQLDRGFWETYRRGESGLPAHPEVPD

Cc1ccccc1-n1c(C(C)Nc2nc(N)nc3nc[nH]c23)nc2cccc(C)c2c1=O (stereo not shown) [CAL-130]
Percent of Control Binding (PAK4): 100% | Percent of Control Binding (RPS6KA4): 100% | Percent of Control Binding (MET): 100% | Percent of Control Binding (STK35): 100% | Percent of Control Binding (PKAC-β): 100% | Percent of Control Binding (DLK): 100% | Percent of Control Binding (MEK1): 100% | Percent of Control Binding (LTK): 100% | Percent of Control Binding (CDK11): 100% | Percent of Control Binding (ABL1(Q252H)): 100% | Percent of Control Binding (EPHB6): 100% | Percent of Control Binding (AURKC): 100% | Percent of Control Binding (BRK): 100% | Percent of Control Binding (PFTK1): 100% | Percent of Control Binding (DAPK2): 100% | Percent of Control Binding (EPHB4): 100% | Percent of Control Binding (MEK3): 100% | Percent of Control Binding (LIMK1): 100% | Percent of Control Binding (PRKG1): 100% | Percent of Control Binding (MLK1): 100% | Percent of Control Binding (HCK): 100% | Percent of Control Binding (PIK3CD; PI3KCD (Table 2)): 0.1% | Percent of Control Binding (PIK3CD; PIK3CD / PI3Kδ (Table 1)): 0.2% | Percent of Control Binding (RET(M918T)): 100% | Percent of Control Binding (STK33): 100% | Percent of Control Binding (EGFR(L861Q)): 100% | Percent of Control Binding (RAF1): 100% | Percent of Control Binding (EPHA5): 100% | Percent of Control Binding (DDR2): 100% | Percent of Control Binding (TGFBR1): 100% | Percent of Control Binding (MAP3K2): 100% | Percent of Control Binding (BIKE): 100% | Percent of Control Binding (BTK): 100% | Percent of Control Binding (CAMK2D): 100% | Percent of Control Binding (PAK6): 100% | Percent of Control Binding (EPHA8): 100% | Percent of Control Binding (MAP3K1): 100%
